Experimental data published in US12383545B1, “Treatment of migraine” (priority 2018, dated 2025).

Tested on: participants with episodic migraine
Assay: Study B: HIT-6 total score and responder rates
Type: in vivo, human
Parameters: key to Change from Baseline in HIT-6 Total Score, LS Mean Δ from baseline: points on HIT-6 total score (range 36–78); negative = improvement
Conditions: for HIT-6 total score, LS mean change (95% confidence interval) / proportion of HIT-6 responders (≥5 points from baseline): Study B, 60 mg QD; for Change from Baseline in HIT-6 Total Score, LS Mean Δ from baseline / HIT-6 Total Score Responder Rates, % Responder: atogepant 60 mg; for Change from Baseline in HIT-6 Total Score, LS Mean Δ from baseline: mITT Population; for HIT-6 Total Score Responder Rates, % Responder: responder = ≥5 point improvement from baseline
Description: In embodiments, the present disclosure provides a method for preventing migraine (such as a method for preventing migraine in patients having fewer than fifteen migraine days per month) wherein atogepant is administered in an amount of 10 mg QD, 30 mg QD, or 60 mg QD, wherein administration of atogepant results in a reduction in a 6-item Headache Impact Test (HIT-6) disability score relative to baseline. The Headache Impact Test (HIT-6) is a well-known tool for assessing migraine intensity, and uses six questions to measure the adverse impact of headache on, for example, social functioning, role functioning, vitality, cognitive functioning, and psychological distress. Responses are based on frequency using a 5-point verbal response scale ranging from “never” to “always”. The HIT-6 total score is the sum of the responses, and ranges from 36 to 78. See Yang et al., Validation of the Headache Impact Test (HIT-6™) Across Episodic and Chronic Migraine, Cephalalgia 2011 February; 31 (3): 357-367. In embodiments, treatment with atogepant results in a greater than five (≥5) point decrease in HIT-6 disability score.
The proportion of HIT-6 responders (≥5 points from baseline) were 59.92% and 80.77% of participants in the first (week 4) and last (week 52) timepoints assessed, respectively. A responder on the HIT-6 was defined as a participant with a ≥5 point improvement from baseline.

SMILES: C[C@@H]1[C@H](c2c(F)ccc(F)c2F)C[C@H](NC(=O)c2cnc3c(c2)C[C@@]2(C3)C(=O)Nc3ncccc32)C(=O)N1CC(F)(F)F [atogepant]
- HIT-6 total score, LS mean change (95% confidence interval) (week 4): −7.63
- proportion of HIT-6 responders (≥5 points from baseline) (week 4): 59.92%
- HIT-6 total score, LS mean change (95% confidence interval) (week 52): −12.10
- proportion of HIT-6 responders (≥5 points from baseline) (week 52): 80.77%
- Change from Baseline in HIT-6 Total Score, LS Mean Δ from baseline (Week 4): −7.63
- HIT-6 Total Score Responder Rates, % Responder (Week 4): 59.92%
- Change from Baseline in HIT-6 Total Score, LS Mean Δ from baseline (Week 8): −9.14
- HIT-6 Total Score Responder Rates, % Responder (Week 8): 66.60%
- Change from Baseline in HIT-6 Total Score, LS Mean Δ from baseline (Week 12): −6.60
- HIT-6 Total Score Responder Rates, % Responder (Week 12): 69.21%
- Change from Baseline in HIT-6 Total Score, LS Mean Δ from baseline (Week 16): −10.15
- HIT-6 Total Score Responder Rates, % Responder (Week 16): 71.65%
- Change from Baseline in HIT-6 Total Score, LS Mean Δ from baseline (Week 20): −10.56
- HIT-6 Total Score Responder Rates, % Responder (Week 20): 73.98%
- Change from Baseline in HIT-6 Total Score, LS Mean Δ from baseline (Week 24): −10.55
- HIT-6 Total Score Responder Rates, % Responder (Week 24): 74.00%
- Change from Baseline in HIT-6 Total Score, LS Mean Δ from baseline (Week 28): −10.99
- HIT-6 Total Score Responder Rates, % Responder (Week 28): 76.56%
- Change from Baseline in HIT-6 Total Score, LS Mean Δ from baseline (Week 32): −11.15
- HIT-6 Total Score Responder Rates, % Responder (Week 32): 77.89%
- Change from Baseline in HIT-6 Total Score, LS Mean Δ from baseline (Week 36): −11.29
- HIT-6 Total Score Responder Rates, % Responder (Week 36): 75.62%
- Change from Baseline in HIT-6 Total Score, LS Mean Δ from baseline (Week 40): −11.76
- HIT-6 Total Score Responder Rates, % Responder (Week 40): 80.71%
- Change from Baseline in HIT-6 Total Score, LS Mean Δ from baseline (Week 44): −11.46
- HIT-6 Total Score Responder Rates, % Responder (Week 44): 78.39%
- Change from Baseline in HIT-6 Total Score, LS Mean Δ from baseline (Week 48): −11.86
- HIT-6 Total Score Responder Rates, % Responder (Week 48): 80.11%
- Change from Baseline in HIT-6 Total Score, LS Mean Δ from baseline (Week 52): −12.10
- HIT-6 Total Score Responder Rates, % Responder (Week 52): 80.77%
